Patent USRE40594E1, “Inhibitors of the bitter taste response” (Mount Sinai School of Medicine of New York University, priority 1998, dated 2008)
Counter-ions that a name gives are not always drawn. Like-named read-outs stand apart in the source and are kept apart here.

Test system: bovine taste receptor cell membranes (taste receptors) with transducin
Test: G protein activation assay (trypsin sensitivity): activation of transducin by bitter tastant plus taste membranes
Type: biochemical, Bovine (Bos primigenius)
Conditions: for inhibition of taste membrane-dependent activation of transducin by DEN (AMP analogues): DEN 5.0 mM, test compound 5.0 mM, FIG. 2; for inhibition of in vitro activation of transducin (G-protein) by taste membranes plus bitter compounds, summary statement: DEN, QUI and other bitter compounds, concentrations not given
Excerpt: Taste receptor is contacted with gustducin or transducin and tastant, in the presence or absence of test inhibitor, under conditions suitable for activation of the G-protein present. […] In specific non-limiting embodiments, a subunits of transducin or gustducin may be combined with βγ subunits prior to this step, as set forth above. To the reaction mixture comprising taste receptors and gustducin or transducin, test inhibitor and/or bitter tastant may be added, and the resulting solution incubated to permit interaction of the elements.
In preferred embodiments, activation is assessed by a trypsin digestion assay. […] In a specific, non-limiting example, to perform a trypsin digestion assay according to the invention, TPCK-treated trypsin (1:25 trypsin to total protein in the reaction mixture) may be added, and the digestion may be performed at room temperature for about 15 minutes and stopped by adding soybean trypsin inhibitor (6:1 mol/mol inhibitor to trypsin). […] The separated polypeptides may then be transferred by electro-blotter to a poly (vinylidene difluoride) membrane blocked by the addition of 5% BLOTTO [50 mM Tris-HCI, pH 7.4/100 mM NaCl/5% nonfat dry milk], (30 min). G-protein peptides may then be visualized by binding of antibody directed toward transducin or gustducin, followed, for example, by binding of a detectably labeled secondary antibody. If a horseradish peroxidase-labeled secondary antibody is used, binding may be visualized by developing with bicinchoninic acid staining reagents and exposure to x-ray film.
G Protein Activation Assays. Bovine (Bos primigenius) tongues were collected fresh from a local slaughterhouse and transported on ice to the laboratory. Circumvallate papillae were hand dissected, frozen in liquid nitrogen, and stored at −80° C. until use. […] The pelleted membranes were rinsed twice, resuspended in homogenization buffer lacking protease inhibitors, and further homogenized by 20 passages through a 25-gauge needle. Aliquots were either flash frozen or stored on ice until use. […] The separated polypeptides were transferred by electro-blotter to a poly (vinylidene difluoride) membrane, which was blocked by the addition of 5% BLOTTO [50 mM Tris-HCI, pH 7.4/100 mM NaCl/5% nonfat dry milk], (30 min), then transducin peptides were visualized by binding of transducin antiserum and horseradish peroxidase-labeled goat anti-rabbit secondary antibody, followed by developing with bicinchoninic acid staining reagents from Bio-Rad and exposure to x-ray film.
Chemicals. All bitter tastant and buffer chemicals were of the highest purity available and were purchased either from Sigma or Boehringer Mannheim, unless otherwise noted. […] The rabbit polyclonal antitransducin antibody was a kind gift of Mel Simon and John Watson (California Institute of Technology, Pasadena, Calif.).

| Molecule | inhibition of taste membrane-dependent activation of transducin by DEN (AMP analogues) | inhibition of in vitro activation of transducin (G-protein) by taste membranes plus bitter compounds, summary statement | activation of transducin by the tastant in the presence of taste membranes (tastant itself, no inhibitor) | also measured |
| --- | --- | --- | --- | --- |
| Nc1ncnc2c1ncn2[C@@H]1O[C@H](CO)[C@@H](OP(=O)(O)O)[C@H]1O [3′AMP, adenosine 3′ monophosphate] | potently inhibited | successfully inhibit |  |  |
| Nc1ncnc2c1ncn2[C@@H]1O[C@H](C(=O)O)[C@@H](O)[C@H]1O [ACA, adenosine 5′-carboxylate] | not inhibited |  |  | inhibition of taste membrane-dependent activation of transducin by DEN (AMP analogues) (listed as adenosine 5′-carboxylate): did not block |
| Cl.Nc1ncnc2nc[nH]c12 [ADE, adenine hydrochloride] |  |  |  | inhibition of taste membrane-dependent activation of transducin by DEN (AMP analogues) (hydrochloride): not inhibited; inhibition of taste membrane-dependent activation of transducin by DEN (AMP analogues) (listed as adenine, hydrochloride): did not block |
| Cl.Nc1ncnc2c1ncn2[C@@H]1O[C@H](CO)[C@@H](O)[C@H]1O [ADO, adenosine hydrochloride] |  |  |  | inhibition of taste membrane-dependent activation of transducin by DEN (AMP analogues) (hydrochloride): not inhibited; inhibition of taste membrane-dependent activation of transducin by DEN (AMP analogues) (listed as adenosine, hydrochloride): did not block |
| Nc1ncnc2c1ncn2[C@@H]1O[C@H](COP(=O)(O)OP(=O)(O)O)[C@@H](O)[C@H]1O [ADP, adenosine 5′ diphosphate] | potently inhibited | successfully inhibit |  |  |
| Nc1ncnc2c1ncn2[C@@H]1O[C@H](COS(=O)(=O)O)[C@@H](O)[C@H]1O [AMS, adenosine 5′-monosulfate] | not inhibited |  |  | inhibition of taste membrane-dependent activation of transducin by DEN (AMP analogues) (listed as adenosine 5′-monosulfate): did not block |
| Nc1ncnc2c1ncn2[C@@H]1O[C@H](COC(=O)CCC(=O)O)[C@@H](O)[C@H]1O [ASU, adenosine 5′-succinate] | inhibited | successfully inhibit |  | inhibition of taste membrane-dependent activation of transducin by DEN (AMP analogues) (listed as adenosinc 5′-succinate): potently inhibited |
| Nc1ncnc2c1ncn2[C@@H]1O[C@H](COP(=O)(O)OP(=O)(O)OP(=O)(O)O)[C@@H](O)[C@H]1O [ATP, adenosine 5′ triphosphate] | potently inhibited | successfully inhibit |  |  |
| Cn1c(=O)c2c(ncn2C)n(C)c1=O [CAF, caffeine, reference compound] | not inhibited |  |  | inhibition of taste membrane-dependent activation of transducin by DEN (AMP analogues) (listed as caffeine): did not block |
| Nc1ccn([C@@H]2O[C@H](COP(=O)(O)O)[C@@H](O)[C@H]2O)c(=O)n1 [CMP, 5′-cytidylic acid] | inhibited | successfully inhibit |  | inhibition of taste membrane-dependent activation of transducin by DEN (AMP analogues) (listed as 5′-Cytidylic acid): partially inhibited |
| CC[N+](CC)(CC(=O)Nc1c(C)cccc1C)Cc1ccccc1 [DEN, denatonium benzoate, reference compound] |  |  | activated transducin |  |
| C=C[C@H]1C[N@@]2CC[C@H]1C[C@H]2[C@H](O)c1ccnc2ccc(OC)cc12 [QUI, quinine hydrochloride, reference compound] |  |  | activated transducin |  |
| Cn1c(=O)c2[nH]cnc2n(C)c1=O [THE, theophylline, reference compound] | not inhibited |  |  | inhibition of taste membrane-dependent activation of transducin by DEN (AMP analogues) (listed as theophylline): did not block |
| Cc1cn([C@H]2C[C@H](O)[C@@H](COP(=O)(O)O)O2)c(=O)[nH]c1=O [TMP, thymidine 5′-monophosphate] | inhibited | successfully inhibit |  | inhibition of taste membrane-dependent activation of transducin by DEN (AMP analogues) (listed as thymidine 5′-monophosphate): potently inhibited |
| Nc1ncnc2c1ncn2[C@@H]1O[C@H](CO)[C@@H](O)[C@H]1OP(=O)(O)O [adenosine 2′-monophosphate] |  | successfully inhibit |  | inhibition of DEN/taste receptor activation of transducin (concentration not given, not shown in FIG. 2): potently inhibited |
| CN1[C@@H]2CC[C@H]1C[C@@H](OC(=O)C(CO)c1ccccc1)C2 (stereo partly shown) [atropine, atropine hydrochloride, reference compound] |  |  | activated transducin |  |
| O=C(O)/C=C/c1ccc(O)c(O)c1 [caffeic acid, reference compound] |  |  | activated transducin |  |
| C[C@@H]1O[C@@H](O[C@H]2[C@H](Oc3cc(O)c4c(c3)O[C@H](c3ccc(O)cc3)CC4=O)O[C@H](CO)[C@@H](O)[C@@H]2O)[C@H](O)[C@H](O)[C@H]1O [naringin, reference compound] |  |  | activated transducin |  |
| CCN(CC)CCCC(C)Nc1c2ccc(Cl)cc2nc2ccc(OC)cc12 (stereo not shown) [quinacrine, reference compound] |  |  | activated transducin |  |
| C1CCN2C[C@@H]3C[C@@H](CN4CCCC[C@@H]34)[C@H]2C1 [sparteine, reference compound] |  |  | activated transducin |  |
| nicotine hemisulfate [reference compound] |  |  |  | activation of transducin by the tastant in the presence of taste membranes: activated transducin |
